Laboratory results published in patent US9161944B2, “Method for preventing cancer metastasis” (INSERM (INSTITUT NATIONAL DE LA SANTE ET DE LA SANTE ET DE …, priority 2010, dated 2015).

Experiments:
SK1 = molecular target: T1, SK1 (Homo sapiens, UniProt Q92952); assay: Whole-cell K+ currents in HEK293 cells expressing recombinant SK1; format: cell-based; conditions: 10 μM, FIG. 9B
T1 construct: expressed in transfected cells; host or cells: HEK293
Description: FIG. 9. Selectivity effect of JPH1701 on SKCa subtype and on IKCa channels. FIG. 9A) Example of whole-cell K^+ currents recorded in HEK293 cells expressing recombinants SK1, SK2, SK3 and IKCa channels before and after application of 10 μM JPH1701 (upper graphs: SK1 and SK2 respectively, bottom graphs: SK3 and IKCa respectively). Currents were generated by ramp protocol from −100 mV to +60 mV in 500 ms from a constant holding of 0 mV and with a pCa 6. FIG. 9B) Histograms showing the effect of 10 μM JPH1701 on SKCa (SK1, SK2, SK3) and IKCa current amplitudes recorded at 0 mV. […] For each channel (SK1, SK2, SK3 and IKCa) the left column (pale grey) represents the control result and the right column (dark grey) represents the result after JPH1701 application.
The selectivity of JPH1701 toward the others members of the SKCa/IKCa channels was tested. […] The experimental protocol was similar to the one used in FIG. 8. JPH1701 was tested for membrane potential from +60 mV to −100 mV on 500 msec.

SK3/KCa2.3 channel = SK3/KCa2.3 channel (Homo sapiens, UniProt Q9UGI6); assay: Whole-cell patch clamp, apamin-sensitive current in MDA-MB-435s; format: cell-based; parameters: effect of JPH1701 on the SK3 activity in MDA-MB-435s cells using patch clamp technique; endogenous in cells; host or cells: MDA-MB-435s wild type
Description: FIG. 7: Effects of a 24 hours application of JPH1701 at 1 μM on whole cell current in MDA-MB-435s Wild Type (WT). FIG. 7A) Illustrations of currents recorded on MDA-MD-435s. On the top, current were recorded on MDA-MB-435s in control condition. At the bottom, current were representative of a cell which was treated with JPH1701 1 μM during 24 hours. FIG. 7B) Effects of JPH1701 on apamin-sensitive currents. Cells were incubated with JHP1701 at 1 μM during 24 hours then currents were measured in absence or with apamin, a specific blocker of the SK3/KCa2.3 channel. Histograms show the amplitude of currents inhibited by apamin. After JPH1701 treatment apamin-sensitive current were abolished. […]
Briefly, experiments were conducted using Axopatch 200B patch-clamp amplifier (Axon Instrument) and data, digitized with 1322-A Digidata converter (Axon Instrument), were stored on a computer using Clampex of pClamp 9.2 software (Axon Instru-ment). The patch-clamp data was analyzed using both Clampfit 9.2 and Origin 7.0 software (Microcal Inc., Northampton, Mass., USA).
The pipette solution for the whole-cell recordings contained (in mM): K-glutamate 125, KCl 20, MgCl2 1, Mg-ATP 1, HEPES 10, and pH was adjusted to 7.2 with KOH and various concentrations of CaCl2 and EGTA were added to obtain calculated pCa=7 (0.37 mM CaCl2 and 10 mM EGTA) or pCa=6.4 (0.7 mM CaCl2 and 1 mM EGTA). […]

[1] = test system: MDA-MB-435s cells expressing luciferase; assay: Experimental metastasis model, cells injected into tail vein, BLI; format: in vivo, NMRI nude mice
Description: Female NMRI nude mice, 6 weeks old, were purchased from Janvier laboratories. Mice were bred and housed at INSERM, U892, University of Nantes, under the animal care license no 44565.
MDA-MB-435s were incubated with 1 μM JPH1701 or with 2% DMSO/3% ethanol (vehicle) during 24 h and injected (0.75 106) in iv into the lateral tail vein. Next, mice were treated three times a week for 12 weeks with JPH1701 at 15 mg/kg in i.v. or with vehicle.
All of the mice were assessed weekly using whole-body bioluminescent imaging to quantify relative amounts of metastasis burden (ΦImageur™; BIOSPACE Lab, France). Each mouse was given potassium salt of D-luciferin (Interchim) at dose of 150 mg/kg body weight by intraperitoneal injection and anesthetized with Ketamin/xylasin i.p. injection. […] Regions of interest were drawn around the experimental metastases. The amount of metastasis burden within each region of interest was quantified as the relative amount of light produced from the luciferase activity in breast cancer cells and expressed in cpm using the Photovision+ software (version 1.3; Biospace Lab). At necropsy, ex vivo BLI measurement were performed for each tissues collected.
To determine whether a SK3/KCa2.3 blocker such as JPH1701 could prevent metastasis development, we used a model of experimental metastasis with MDA-MB-435s cells expressing the firefly luciferase gene. Cancer cells were injected directly to the systemic circulation into the vein tail. One cohort of mice was treated with JPH1701 three times a week for 12 weeks by i.v. administration. Another cohort was treated with the vehicle in the same conditions. At the end of treatment, metastases were visualized in vivo by bioluminescence imaging (BLI) in 70% (7/10) of control mice and only in 40% (4/10) of JPH1701 treated-mice (Table 4). To go further, mice were sacrificed and detection of metastases in different tissues was performed ex vivo by BLI. The number of positive tissues from each cohort was show in Table 4. Metastatic lesions were detected in all vehicle-treated mice.

[2] = 15 mg/kg i.v. three times a week, 12 weeks, N = 10
[3] = 15 mg/kg i.v., 12 weeks, N = 10

Sequence of SK3/KCa2.3 channel (Q9UGI6 whole entry): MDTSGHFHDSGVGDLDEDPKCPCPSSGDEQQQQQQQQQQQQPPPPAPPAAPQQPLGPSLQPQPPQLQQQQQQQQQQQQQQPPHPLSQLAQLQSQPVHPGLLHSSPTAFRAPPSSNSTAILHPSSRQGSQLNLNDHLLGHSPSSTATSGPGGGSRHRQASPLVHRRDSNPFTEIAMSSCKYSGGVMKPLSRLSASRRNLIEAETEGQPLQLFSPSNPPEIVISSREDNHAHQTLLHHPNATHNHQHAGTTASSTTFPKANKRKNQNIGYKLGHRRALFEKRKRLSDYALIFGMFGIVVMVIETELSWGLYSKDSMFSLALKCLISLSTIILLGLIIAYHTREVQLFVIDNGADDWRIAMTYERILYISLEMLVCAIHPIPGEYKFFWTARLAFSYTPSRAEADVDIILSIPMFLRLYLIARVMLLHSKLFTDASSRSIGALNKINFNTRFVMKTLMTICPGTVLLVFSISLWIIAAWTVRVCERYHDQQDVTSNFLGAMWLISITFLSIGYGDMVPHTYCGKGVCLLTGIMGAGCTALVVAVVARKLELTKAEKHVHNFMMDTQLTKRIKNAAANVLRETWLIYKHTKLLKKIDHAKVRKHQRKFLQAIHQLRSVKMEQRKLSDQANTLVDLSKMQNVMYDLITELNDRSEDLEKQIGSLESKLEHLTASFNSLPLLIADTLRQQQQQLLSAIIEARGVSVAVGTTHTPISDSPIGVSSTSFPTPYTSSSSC
T1 sequence (Q92952 whole entry): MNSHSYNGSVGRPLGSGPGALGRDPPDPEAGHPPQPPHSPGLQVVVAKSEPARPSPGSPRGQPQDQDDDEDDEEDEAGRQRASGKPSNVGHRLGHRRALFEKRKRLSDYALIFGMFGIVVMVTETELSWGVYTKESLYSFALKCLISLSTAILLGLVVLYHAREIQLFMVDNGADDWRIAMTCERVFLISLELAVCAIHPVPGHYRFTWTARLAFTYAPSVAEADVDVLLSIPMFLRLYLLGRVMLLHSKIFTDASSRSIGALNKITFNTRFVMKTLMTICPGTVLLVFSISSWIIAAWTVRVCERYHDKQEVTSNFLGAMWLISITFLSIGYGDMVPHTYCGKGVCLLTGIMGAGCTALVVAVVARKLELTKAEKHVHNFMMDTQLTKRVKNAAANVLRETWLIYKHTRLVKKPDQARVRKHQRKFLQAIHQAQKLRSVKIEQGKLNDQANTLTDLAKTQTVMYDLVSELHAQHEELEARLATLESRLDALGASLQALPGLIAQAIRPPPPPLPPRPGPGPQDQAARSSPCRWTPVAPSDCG

Q: With “hexadecyloxy-2-O-methyl-sn-glycerol-lactose [JPH1701]” as the substance, how does the “Effect on SK1 current amplitude at 0 mV” value (SK1) read?
A: The value was “significantly reduced”.

Q: What about the “Apamin-sensitive current after treatment” value (SK3/KCa2.3 channel; 1 μM for 24 h, FIG. 7B) of the same substance?
A: Its value is “totally abolished”.

Q: What about the “Apamin-sensitive current in MDA-MB-435s” value (SK3/KCa2.3 channel; wild-type cells, residual current abolished by apamin) of the same substance?
A: The value was 0.071 ± 0.215 pA/pF.

Q: What about the “Adverse effects in mice” value ([1]; 15 mg/kg i.v. three times a week for 12 weeks) of the same substance?
A: The value was “No adverse effects”.

Q: What about the “Number of mice with experimental metastases detected ex vivo by BLI” value [1, 2] of the same substance?
A: Its value is 7.

Q: What about the “Number of mice with experimental metastases detected in vivo by BLI” value [1, 2] of the same substance?
A: Its value is 4.

Q: What about the “Mice with no sign of metastasis development ex vivo” value ([1]; 15 mg/kg i.v., 12 weeks) of the same substance?
A: The value was 30%.

Q: What about the “Number of tissues with metastases detected by BLI: column” value [1, 3] of the same substance?
A: Its value is 2.

Q: What about the “Number of tissues with metastases detected by BLI: kidney” value [1, 3] of the same substance?
A: The value was 0.

Q: And the “Number of tissues with metastases detected by BLI: leg” value [1, 3]?
A: Its value is 3.

Q: What about the “Number of tissues with metastases detected by BLI: liver” value [1, 3] of the same substance?
A: Its value is 0.

Q: And the “Number of tissues with metastases detected by BLI: lung” value [1, 3]?
A: The value was 5.

Q: What about the “Number of tissues with metastases detected by BLI: lymph node” value [1, 3] of the same substance?
A: Its value is 1.

Q: And the “Number of tissues with metastases detected by BLI: ovary/uterus” value [1, 3]?
A: Its value is 0.

Q: And the “Number of tissues with metastases detected by BLI: spleen” value [1, 3]?
A: Its value is 0.

Q: What about the “Mice with metastases visualized in vivo by BLI at the end of treatment” value ([1]; 15 mg/kg i.v., 12 weeks, control 70%) of the same substance?
A: The value was 40%.

Q: What about the Metastatic profile ([1]; FIGS. 10A-D) of the same substance?
A: Its Metastatic profile is “shifted the metastatic profile toward a less one”.

Q: What about the “Additional wait until 75% of mice present detectable metastases (vehicle: week 4)” value ([1]; mice with metastases in vivo on week 12) of the same substance?
A: The value was 3 weeks.

Q: What about the “Metastasis appearance, times faster in control group than in treated group” value ([1]; mice with metastases in vivo on week 12, FIG. 10E) of the same substance?
A: Its value is “roughly 3 times”.
